Molecular target: T1, S.pneumoniae FabK, enoyl-ACP reductase (Streptococcus pneumoniae, UniProt Q9FBC5, T318A)
T1 construct: […]; made in house; host or cells: E. coli BL21 (DE3) harboring tRNA vector pRR692; plasmid pET24bSpfabK
Test: FabK enzyme activity assay (NADH oxidation at 340 nm, crotonoyl-ACP reduction)
Assay type: biochemical
Conditions: NH4+ at 100 mM; greatest activation among monovalent cations
Method: FabK catalyses the reduction of enoyl-ACPs with the concommitant oxidation of NADH. Crotonoyl-ACP can be prepared as described below. The reduction of crotonoyl-ACP to butyryl-ACP can be monitored by following the change in absorbance at 340 nm as NADH is oxidised.
Assays were carried out in Costar 3696 half-area plates in a final assay volume of 150 ul on a Spectramax platereader. Substrates, NADH and crotonoyl ACP, were incubated with FabK enzyme in 100 mM N-[2-acetamido]-2 iminodiacetic acid (ADA), pH 6.5, 100 mM NH4Cl, 4% glycerol at 30° C. and the reaction monitored at 340 nm. This assaying can also be performed using crotonyl CoA, NADPH or an NADH analogue as a substrate.

T1 sequence (Q9FBC5 whole entry T318A): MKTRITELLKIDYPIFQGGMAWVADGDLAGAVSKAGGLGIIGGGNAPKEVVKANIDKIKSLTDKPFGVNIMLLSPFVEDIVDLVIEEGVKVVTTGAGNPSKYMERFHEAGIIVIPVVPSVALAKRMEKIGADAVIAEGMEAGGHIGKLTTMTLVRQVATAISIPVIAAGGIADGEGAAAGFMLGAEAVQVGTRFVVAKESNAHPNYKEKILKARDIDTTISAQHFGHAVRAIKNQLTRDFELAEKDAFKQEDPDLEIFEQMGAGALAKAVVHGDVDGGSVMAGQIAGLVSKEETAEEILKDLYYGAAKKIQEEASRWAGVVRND

In the case of Cl.N [NH4+, NH4^+], the “activation of the FabK reaction over the reaction with no monovalent cations” value is reported as “about 300 fold”.

Reference: patent publication US6821746B2, “Methods of screening for FabK antagonists and agonists” (priority 2000, dated 2004)
